# From patent publication US6376670B1, “Quinoline-indole antimicrobial agents, uses and compositions related thereto” (Sepracor Inc., priority 1997, dated 2002)
# Like-named read-outs stand apart in the source and are kept apart here.
# Experiments:
# Assay in all cases: Determination of MIC values (BHI broth, 96 well microtiter plate)
# Format in all cases: cell-based
# [1] = system: methicillin-resistant Staphylococcus aureus (MRSA); details: Staphylococcus aureus, MRSA, BHI broth, read-out: MIC MRSA
# How it was run: (§1)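 Here, each test series spans final concentrations of 25 to 0.39 µg/mL in BHI broth, with DMSO as diluent. Plates seeded at 10^5–10^6 cells/mL are kept at 37° C and approx. 7-10% CO2 for about 16 hours before growth is scored.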
# [2] = system: Streptococcus pneumoniae; details: Streptococcus pneumoniae, BHI broth, read-out: MIC S. pneu
# How it was run: as §1
# [3] = system: vancomycin-resistant Enterococcus spp. (VRE); details: BHI broth; for MIC: Enterococcus, VRE, read-out: MIC VREF
# How it was run: as §1
# [4] = 16 h, 37° C., overnight (about 16 hours)
# [5] = 37° C., overnight (about 16 hours)
MIC ([1]; overnight 37° C.) [µg/mL],"MIC ([2]; S. pneu, overnight 37° C.) [µg/mL]","MIC ([3]; VREF, overnight 37° C.) [µg/mL]","MIC [1, 4] [µg/mL]","MIC [3, 4] [µg/mL]",SMILES,further results
< 7,< 7,< 7,,,NCC1CCC(CNC(=O)c2cc(-c3c[nH]c4ccc(Br)cc34)nc3c(Cl)c(Cl)ccc23)CC1 (stereo not shown) [Example 277],
< 25,< 25,> 25,,,Cn1cc(-c2cc(C(=O)O)c3ccc(F)cc3n2)c2cc(Br)ccc21 [Example 310],
< 7,< 7,< 7,,,NCc1ccc(CNC(=O)c2cc(-c3c[nH]c4ccc(Br)cc34)nc3ccc(C#CCN4CC=CCC4)cc23)cc1 [Example 241],
< 7,< 7,< 7,,,NCCNC(=O)c1cc(-c2c[nH]c3ccc(Br)cc23)nc2c(Br)cccc12 [Example 315],
< 7,< 7,< 7,,,Cn1cc(-c2cc(C(=O)NCc3ccc(CN)cc3)c3cc(Cl)ccc3n2)c2cc(Br)ccc21 [Example 365],
< 7,< 7,< 7,,,NCc1cccc(CNC(=O)c2cc(-c3c[nH]c4ccc(Br)cc34)nc3cc(Cl)c(I)cc23)c1 [Example 243],
,,,,,CNCCN(C)C(=O)c1cc(-c2c[nH]c3ccc(Br)cc23)nc2ccc(Cl)cc12 [Example 500],"MIC ([1]; 16 h, 37° C., about 16 hours): < 7 µg/mL; MIC ([2]; 37° C., about 16 hours): < 7 µg/mL; MIC ([3]; 16 h, 37° C., about 16 hours): < 7 µg/mL"
,,,,,OCc1[nH]c2ccc(Cl)cc2c1-c1cc(Cl)c2ccccc2n1 [Example 470],"MIC ([1]; 16 h, 37° C., about 16 hours): > 25 µg/mL; MIC ([2]; 37° C., about 16 hours): > 25 µg/mL; MIC ([3]; 16 h, 37° C., about 16 hours): > 25 µg/mL"
< 25,< 7,< 25,,,Cn1cc(-c2cc(C(=O)NCc3ccc(CN)cc3)c3cc(C#CCN4CCCCC4)ccc3n2)c2cc(Br)ccc21 [Example 376],
< 7,< 7,< 7,,,Cn1cc(-c2cc(C(=O)NCCN)c3cc(C#CCNCCc4ccccc4)ccc3n2)c2cc(Br)ccc21 [Example 399],
,,,< 7,< 7,NCc1ccc(CNC(=O)c2cc(-c3c[nH]c4ccc(Br)cc34)nc3cc(Cl)ccc23)cc1 [Example 142],"MIC [2, 5]: < 7 µg/mL"
,,,< 7,< 25,NC1CCC(NC(=O)c2cc(-c3c[nH]c4ccc(Br)cc34)nc3ccc(Cl)cc23)CC1 (stereo not shown) [Example 131],"MIC [2, 5]: < 7 µg/mL"
< 7,< 7,< 7,,,NCC1CCC(CNC(=O)c2cc(-c3c[nH]c4ccc(Br)cc34)nc3cc(Cl)c(I)cc23)CC1 (stereo not shown) [Example 244],
,,,< 7,< 7,NCCCCNC(=O)c1cc(-c2c[nH]c3ccc(Br)cc23)nc2ccc(I)cc12 [Example 109],"MIC [2, 5]: < 7 µg/mL"
< 7,< 7,< 7,,,NCCNC(=O)c1cc(-c2c[nH]c3ccc(Br)cc23)nc2cc(Cl)c(I)cc12 [Example 294],
< 25,< 7,> 25,,,Fc1cccc2[nH]cc(-c3cc(Cl)c4ccccc4n3)c12 [Example 338],
,,,< 7,< 7,NCCCNC(=O)c1cc(-c2c[nH]c3ccc(Br)cc23)nc2ccc(I)cc12 [Example 108],"MIC [2, 5]: < 7 µg/mL"
,,,< 7,< 7,NCc1ccc(CNC(=O)c2cc(-c3c[nH]c4ccc(Br)cc34)nc3ccc(I)cc23)cc1 [compound 53],"MIC [2, 5]: < 7 µg/mL"
< 7,< 7,> 25,,,Clc1ccc2nc(-c3c[nH]c4ccc(Cl)cc34)ccc2c1 [Example 287],
,,,< 7,< 7,NCc1ccc(CNC(=O)c2cc(-c3c[nH]c4ccc(Br)cc34)nc3c(Cl)cccc23)cc1 [Example 143],"MIC [2, 5]: < 7 µg/mL"
> 25,> 25,> 25,,,NCc1cccc(CNC(=O)c2cc(-c3cc4cc(Cl)ccc4[nH]3)nc3cc(I)ccc23)c1 [Example 311],
,,,< 7,< 7,NCC1CCC(CNC(=O)c2cc(-c3c[nH]c4ccc(Br)cc34)nc3ccc(Br)cc23)CC1 (stereo not shown) [Example 124],"MIC [2, 5]: < 7 µg/mL"
< 7,< 7,< 7,,,Cn1cc(-c2cc(C(=O)NCCN)c3ccc(F)cc3n2)c2cc(Br)ccc21 [Example 325],
,,,,,COc1ccc2nc(-c3c[nH]c4cc(Cl)ccc34)ccc2c1 [Example 414],"MIC ([1]; 16 h, 37° C., about 16 hours): > 25 µg/mL; MIC ([2]; 37° C., about 16 hours): > 25 µg/mL; MIC ([3]; 16 h, 37° C., about 16 hours): > 25 µg/mL"
,,,< 25,> 25,Fc1ccc2c(-c3ccc4ccccc4n3)c[nH]c2c1 [Example 183],"MIC [2, 5]: > 25 µg/mL"
,,,,,NCCNC(=O)c1cc(-c2c[nH]c3ccc(Br)cc23)nc2ccc(C#CCNCCc3ccccc3)cc12 [Example 527],"MIC ([1]; 16 h, 37° C., about 16 hours): < 7 µg/mL; MIC ([2]; 37° C., about 16 hours): < 7 µg/mL; MIC ([3]; 16 h, 37° C., about 16 hours): < 7 µg/mL"
> 25,> 25,> 25,,,CCOC(=O)n1cc(-c2cc(C(=O)NCc3ccc(CN)cc3)c3cc(C#CCN4CCCCC4)ccc3n2)c2cc(Br)ccc21 [Example 337],
< 7,< 7,< 7,,,CC(C)N(CC#Cc1ccc2nc(-c3cn(C)c4ccc(Br)cc34)cc(C(=O)NCc3ccc(CN)cc3)c2c1)C(C)C [Example 398],

MIC ([1]; overnight 37° C.) [µg/mL],"MIC ([2]; S. pneu, overnight 37° C.) [µg/mL]","MIC ([3]; VREF, overnight 37° C.) [µg/mL]","MIC [1, 4] [µg/mL]","MIC [3, 4] [µg/mL]",SMILES,further results
,,,< 7,< 7,NCC1CCC(CNC(=O)c2cc(-c3c[nH]c4ccc(Br)cc34)nc3ccc(Cl)cc23)CC1 (stereo not shown) [Example 133],"MIC [2, 5]: < 7 µg/mL"
,,,,,OCc1[nH]c2ccccc2c1-c1cc(Cl)c2ccccc2n1 [Example 459],"MIC ([1]; 16 h, 37° C., about 16 hours): > 25 µg/mL; MIC ([2]; 37° C., about 16 hours): > 25 µg/mL; MIC ([3]; 16 h, 37° C., about 16 hours): > 25 µg/mL"
,,,,,OCc1cc(-c2c[nH]c3ccc(Br)cc23)nc2cc(F)ccc12 [Example 446],"MIC ([1]; 16 h, 37° C., about 16 hours): < 7 µg/mL; MIC ([2]; 37° C., about 16 hours): < 7 µg/mL; MIC VREF ([3]; 37° C., about 16 hours): <7 µg/mL"
> 25,> 25,> 25,,,CCOc1cc(-c2cn(C(=O)OC(C)(C)C)c3ccc(Br)cc23)nc2ccc(I)cc12 [Example 361],
,,,,,COc1ccc2[nH]c(C)c(-c3ccc4cc(C)ccc4n3)c2c1 [Example 434],"MIC ([1]; 16 h, 37° C., about 16 hours): > 25 µg/mL; MIC ([2]; 37° C., about 16 hours): > 25 µg/mL; MIC ([3]; 16 h, 37° C., about 16 hours): > 25 µg/mL"
,< 7,,,,Cn1cc(-c2cc(C(=O)NCc3ccc(CN)cc3)c3cc(I)ccc3n2)c2cc(Br)ccc21 [Example 299],
,,,,,Cc1cccc2ccc(-c3c[nH]c4c(C)cccc34)nc12 [Example 471],"MIC ([2]; 37° C., about 16 hours): < 7 µg/mL; MIC ([3]; 16 h, 37° C., about 16 hours): > 25 µg/mL"
,,,> 25,> 25,Cn1cc(-c2ccc3ccccc3n2)c2ccccc21 [Example 176],
,,,< 25,< 25,Cc1cccc2c(-c3ccc4ccccc4n3)c[nH]c12 [Example 189],
< 7,,< 25,,,Cc1c(-c2ccc3cc(Cl)ccc3n2)c2ccccc2n1C [Example 215],
> 25,,> 25,,,COc1cc2[nH]cc(-c3ccc4cc(Cl)ccc4n3)c2cc1OC [Example 206],
,,,> 25,> 25,Cn1cc(-c2ccc3cc(Cl)ccc3n2)c2ccccc21 [Example 179],
< 7,,< 7,,,NCC1CCCC(CNC(=O)c2cc(-c3c[nH]c4ccc(Br)cc34)nc3cc(F)ccc23)C1 (stereo not shown) [Example 255],
,,,< 25,< 25,NCc1ccc(CNC(=O)c2cc(C34CC5CC(CC(C5)C3)C4)nc3ccccc23)cc1 [Example 26],
< 7,,< 7,,,CN(CC#Cc1ccc2nc(-c3c[nH]c4ccc(Br)cc34)cc(C(=O)NCc3ccc(CN)cc3)c2c1)C1CCCCC1 [Example 237],
,,,> 25,> 25,COc1ccc2[nH]cc(-c3cc(C(=O)NCc4ccc(CN)cc4)c4ccccc4n3)c2c1 [Example 18],
,,,> 25,> 25,NCc1ccc(CNC(=O)c2cc(-c3ccccc3)nc3ccccc23)cc1 [Example 81],
,,,< 25,< 7,NCc1cccc(CNC(=O)c2cc(-c3c[nH]c4ccc(Br)cc34)nc3ccccc23)c1 [compound 4],
,,,> 25,> 25,NCc1ccc(CNC(=O)c2cc(-c3c[nH]c4ccc(Br)cc34)nc3cc4c(cc23)OCCO4)cc1 [Example 150],
,,,< 7,< 7,NCc1ccc(CNC(=O)c2cc(-c3c[nH]c4ccc(Br)cc34)nc3ccc(C#Cc4ccccc4)cc23)cc1 [Example 101],
< 25,,> 25,,,COc1ccc2c(c1)c(-c1ccc3cc(Cl)ccc3n1)cn2C [Example 214],
,,,< 7,< 25,O=C(NCc1ccc(CNC(=O)c2cc(-c3c[nH]c4ccc(Br)cc34)nc3ccccc23)cc1)Nc1ccc(C(F)(F)F)cc1 [Example 85],
,,,< 25,< 25,N[C@H](Cc1c[nH]cn1)C(=O)NCc1ccc(CNC(=O)c2cc(-c3c[nH]c4ccc(Br)cc34)nc3ccccc23)cc1 [Example 73],
< 7,,< 7,,,CN(CC#Cc1cccc2c(C(=O)NCc3ccc(CN)cc3)cc(-c3c[nH]c4ccc(Br)cc34)nc12)C1CCCCC1 [Example 265],
,,,< 25,> 25,CN1CCN(C(=O)c2cc(-c3c[nH]c4ccc(Br)cc34)nc3ccccc23)CC1 [Example 30],
,,,< 25,< 25,N=C(N)NCCCC(NC(=O)c1cc(-c2c[nH]c3ccc(Br)cc23)nc2ccccc12)C(N)=O (stereo not shown) [Example 57],
,,,> 25,> 25,NCc1ccc(CNC(=O)C2CC(c3c[nH]c4ccccc34)Nc3ccccc32)cc1 (stereo not shown) [Example 91],
